# In patent publication US6583299B1, “α-amino-β-sulfonyl hydroxamic acid compounds” (priority 1999, dated 2003):
# Experiments:
# [1] = test system: human moncytic line U-937; assay: Tumor necrosis factor assay: PMA-stimulated TNF release, TNFα ELISA; format: cell-based; settings: U-937 cells; for inhibition at 10 µM: compound at 10 μM, read-out: Per Cent Inhibition of TNF? Release [average]
# Experimental: The cells used in the assay are the human moncytic line U-937 (ATCC CRL-1593). The cells are grown RPMI w/10% FCS and PSG supplement (R-10) and are not permitted to overgrow. The assay is carried out as follows:
# 1. Count, then harvest cells by centrifugation. Resuspend the pellet in R-10 supplement to a concentration of 1.540×10^6 cells/mL.
# 2. Add test compound in 65 μL R-10 to the appropriate wells of a 96-well flat bottom tissue culture plate. The initial dilution from a DMSO stock (100 mM compound) provides a 400 μM solution, from which five additional three-fold serial dilutions are made.
# 3. The counted, washed and resuspended cells (200,000 cells/well) in 130 μL are added to the wells.
# 4. Incubation is for 45 minutes to one hour at 37° C. in 5% CO2 in a water saturated container.
# 5. R-10 (65 μL)containing 160 ng/mL PMA (Sigma) is added to each well. 6. The test system is incubated at 37° C. in 5% CO2 overnight (18-20 hours) under 100% humidity.
# 7. Supernatant, 150 μL, is carefully removed from each well for use in the ELISA assay.
# Coat Immulon® 2 plates with 0.1 mL/well of 1 ug/mL Genzyme mAb in 0.1 M NaHCO3 pH 8.0 buffer overnight (about 18-20 hours) at 4° C., wrapped tightly in Saran® wrap.
# Wash wells thoroughly 4× with wash buffer and completely remove all wash buffer. Add 0.1 mL/well of either samples or rhTNFα standards. Dilute samples if necessary in appropriate diluent (e.g. tissue culture medium). Dilute standard in same diluent. Standards and samples should be in triplicates.
# Wash plates as above. Add 0.1 mL/well of 1:200 dilution of Genzyme rabbit anti-hTNFα.
# Repeat wash. Add 0.1 mL/well of 1 μg/mL Jackson goat anti-rabbit IgG (H+L)-peroxidase.
# Repeat wash. Add 0.1 mL/well of peroxide-ABTS solution.
# MMP-13 = target: T1, MMP-13 (Homo sapiens, UniProt P45452); assay: In vitro metalloprotease inhibition, fluorogenic MCA peptide substrate; format: biochemical; settings: recombinant human enzyme, APMA-activated, room temperature, pH 7.5; read-out: MMP-13 IC50
# T1 construct: made in house; host or cells: baculovirus / insect cells
# Experimental: (§1) Briefly, 4-aminophenylmercuric acetate (APMA) or trypsin-activated MMPs were incubated with various concentrations of the inhibitor compound at room temperature for 5 minutes.
# (§2) The expressed enzyme was purified first over a heparin agarose column and then over a chelating zinc chloride column. The proenzyme was activated by APMA for use in the assay.
# (§3) The enzyme substrate is a methoxycoumarin-containing polypeptide having the following sequence:
# (§4) MCA-ProLeuGlyLeuDpaAlaArgNH2, wherein MCA is methoxycoumarin and Dpa is 3-(2,4-dinitrophenyl)-L-2,3-diaminopropionyl alanine.
# (§5) The assayed inhibitor compound in DMSO/buffer solution was compared to an equal amount of DMSO/buffer with no inhibitor as control using Microfluor™ White Plates (Dynatech). The inhibitor or control solution was maintained in the plate for 10 minutes and the substrate was added to provide a final concentration of 4 μM.
# (§6) Inhibition was measured as a reduction in fluorescent intensity as a function of inhibitor concentration, using a Perkin Elmer L550 plate reader. The IC50 values were calculated from those values.
# MMP-1 = target: T2, MMP-1 (Homo sapiens, UniProt P03956); assay: as above; format: biochemical; settings: recombinant human enzyme, APMA-activated, room temperature, pH 7.5
# T2 construct: host or cells: transfected HT-1080 cells
# T2 sequence (P03956 100-469): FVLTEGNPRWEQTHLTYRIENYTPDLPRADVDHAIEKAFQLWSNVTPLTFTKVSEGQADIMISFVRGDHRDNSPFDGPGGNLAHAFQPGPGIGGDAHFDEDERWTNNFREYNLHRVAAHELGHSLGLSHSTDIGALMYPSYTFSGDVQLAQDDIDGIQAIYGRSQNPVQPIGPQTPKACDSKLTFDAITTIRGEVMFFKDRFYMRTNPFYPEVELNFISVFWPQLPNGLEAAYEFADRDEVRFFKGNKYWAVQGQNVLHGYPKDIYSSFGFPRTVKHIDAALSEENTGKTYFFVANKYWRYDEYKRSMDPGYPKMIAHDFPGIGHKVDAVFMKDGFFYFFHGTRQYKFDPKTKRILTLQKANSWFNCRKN
# Experimental: as §1, §2
# MMP-1 expressed in transfected HT-1080 cells was provided by Dr. Harold Welgus of Washington University, St. Louis, Mo. The enzyme was also activated using APMA and was then purified over a hydroxamic acid column.
# as §3, §4, §5, §6
# [2] = test system: solid tumor cancers (colorectal, pancreatic, ovarian, prostate); settings: cited from earlier work
# MMP-2 = target: T3, MMP-2 (Homo sapiens, UniProt P08253); assay: In vitro metalloprotease inhibition, fluorogenic MCA peptide substrate; format: biochemical; settings: room temperature, pH 7.5
# T3 sequence (P08253 110-660): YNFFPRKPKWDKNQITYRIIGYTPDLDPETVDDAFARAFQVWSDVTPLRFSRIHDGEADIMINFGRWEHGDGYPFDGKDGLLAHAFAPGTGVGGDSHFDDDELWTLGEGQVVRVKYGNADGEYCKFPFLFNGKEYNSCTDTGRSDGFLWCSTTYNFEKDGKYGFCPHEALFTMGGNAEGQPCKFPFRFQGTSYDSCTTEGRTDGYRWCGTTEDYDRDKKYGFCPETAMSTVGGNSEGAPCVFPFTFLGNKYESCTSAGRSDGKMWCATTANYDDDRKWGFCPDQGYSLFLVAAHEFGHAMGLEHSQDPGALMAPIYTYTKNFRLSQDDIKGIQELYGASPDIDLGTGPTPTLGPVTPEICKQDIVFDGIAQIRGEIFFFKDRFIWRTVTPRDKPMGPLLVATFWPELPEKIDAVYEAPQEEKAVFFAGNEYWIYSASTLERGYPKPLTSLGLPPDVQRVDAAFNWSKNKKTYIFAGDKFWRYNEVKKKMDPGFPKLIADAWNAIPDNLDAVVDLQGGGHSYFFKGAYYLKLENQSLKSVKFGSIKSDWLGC
# Experimental: Briefly, 4-aminophenylmercuric acetate (APMA) or trypsin-activated MMPs were incubated with various concentrations of the inhibitor compound at room temperature for 5 minutes. […] The assayed inhibitor compound in DMSO/buffer solution was compared to an equal amount of DMSO/buffer with no inhibitor as control using MicrofluorTM White Plates (Dynatech). The inhibitor or control solution was maintained in the plate for 10 minutes and the substrate was added to provide a final concentration of 4 μM. […] Inhibition was measured as a reduction in fluorescent intensity as a function of inhibitor concentration, using a Perkin Elmer [MUT] plate reader. The IC50 values were calculated from those values.
SMILES,IC50 [1],IC50 (MMP-13),IC50 (MMP-1),"Most common drug-related toxicity ([2]; clinical trials, Phase I/II)","Effect on cancer-specific antigens used as surrogate markers for biological activity ([2]; patients with advanced, rapidly progressive, treatment-refractory solid tumor cancers)",IC50 (MMP-2),inhibition at 10 µM [1]
COc1ccc(S(=O)(=O)CC(NC(C)=O)C(=O)NO)cc1 (stereo not shown) [Example 24],> 50000 nM,650 nM,5200 nM,,,,
COc1ccc(S(=O)(=O)CC(N)C(=O)NO)cc1 (stereo not shown) [Example 22],> 29000 nM,15 nM,250 nM,,,,
CNC(=O)[C@@H](NC(=O)[C@H](CC(C)C)[C@H](O)C(=O)NO)C(C)(C)C [marimastat],,,,musculoskeletal pain and stiffness,dose-related reduction in the rise of cancer-specific antigens,,
COc1ccc(S(=O)(=O)CC(NC(=O)[C@@H](C)NC(=O)OCc2ccccc2)C(=O)NO)cc1 (stereo partly shown) [Example 25],14000 nM,1 nM,1 nM,,,,
COc1ccc(S(=O)(=O)CC(NC(=O)CCC(=O)OCc2ccccc2)C(=O)NO)cc1 (stereo not shown) [Example 7],> 50000 nM,2.5 nM,200 nM,,,,
COc1ccc(S(=O)(=O)CC(NC(=O)CCC(=O)O)C(=O)NO)cc1 (stereo not shown) [Example 8],> 50000 nM,60 nM,600 nM,,,,
CN(C(=O)OC(C)(C)C)C(C)(CS(=O)(=O)c1ccc(NC(=O)c2ccccc2)cc1)C(=O)NO (stereo not shown) [Example 63],,21.5 nM,3050 nM,,,1 nM,
O=C(N[C@@H](CS(=O)(=O)c1ccc(Oc2ccccc2)cc1)C(=O)NO)c1ccncc1 [Example 46],,1.1 nM,1310 nM,,,0.3 nM,
CN(C(=O)OC(C)(C)C)[C@H](CS(=O)(=O)c1ccc(Oc2ccccc2)cc1)C(=O)NO [Example 40],,0.3 nM,1600 nM,,,0.3 nM,
O=C(N[C@@H](CS(=O)(=O)c1ccc(Oc2ccccc2)cc1)C(=O)NO)c1ccnc2ccccc12 [Example 51],,0.4 nM,295 nM,,,0.3 nM,
"CC(=O)NC(CS(=O)(=O)c1ccc(Br)cc1)C(=O)NO (stereo not shown) [Example 5, N-Hydroxy-3-[(4-bromophenyl)sulfonyl]-2-[(methylcarbonyl)amino]propanamide]",> 50000 nM,200 nM,100 nM,,,,-10.8%
Cc1ccc(S(=O)(=O)NC(CS(=O)(=O)c2ccc(Oc3ccccc3)cc2)C(=O)NO)cc1 (stereo not shown) [Example 12c],,0.6 nM,400 nM,,,< 0.1 nM,
COc1ccc(CC(=O)NC(CS(=O)(=O)c2ccc(Sc3ccccc3)cc2)C(=O)NO)c(OC)c1 (stereo not shown) [Example 31],,0.4 nM,3000 nM,,,0.8 nM,
O=C(NO)[C@H](CS(=O)(=O)c1ccc(Oc2ccccc2)cc1)N1CCCCC1 [Example 54],,0.3 nM,345 nM,,,0.2 nM,
COc1ccc(S(=O)(=O)CC(NC(C)=O)C(=O)NO)cc1OC (stereo not shown) [Example 23],> 50000 nM,1500 nM,> 10000 nM,,,,
CC(C)(C)OC(=O)NC(C)(CS(=O)(=O)c1ccc(NC(=O)c2ccccc2)cc1)C(=O)NO (stereo not shown) [Example 62],,1200 nM,72.3 nM,,,23.9 nM,
O=C(N[C@@H](CS(=O)(=O)c1ccc(Oc2ccccc2)cc1)C(=O)NO)c1ccnc2ccccc12 [Example 50],,0.3 nM,316 nM,,,0.3 nM,
"CCCCC(=O)NC(CS(=O)(=O)c1ccc(OC)cc1)C(=O)NO (stereo not shown) [Example 4, N-Hydroxy-3-[(4-methoxyphenyl)sulfonyl]-2-[(butylcarbonyl)amino]propanamide]",> 50000 nM,3.5 nM,400 nM,,,,-3.8%
"COc1ccc(S(=O)(=O)CC(NC(=O)c2ccccc2)C(=O)NO)cc1 (stereo not shown) [Example 3, N-Hydroxy-3-[(4-methoxyphenyl)sulfonyl]-2-[(phenylcarbonyl)amino]propanamide]",,25 nM,2000 nM,,,,3.72%
